{"source": "ChEMBL document CHEMBL5331060", "about": "“Bisindole natural products: A vital source for the development of new anticancer drugs” (Eur J Med Chem, 2022)", "key": {"HT-29 [1]": {"test_system": "HT-29", "assay": "Antiproliferative activity against human HT-29 cells assessed as inhibition of cell growth incubated for 48 hrs by SRB assay", "format": "functional, cell-based"}, "CCRF-CEM": {"test_system": "CCRF-CEM", "assay": "Antiproliferative activity against human CCRF-CEM cells assessed as inhibition of cell growth by MTT assay", "format": "functional, cell-based"}, "B16": {"test_system": "B16", "assay": "Antiproliferative activity against B16 cells assessed as inhibition of cell growth by MTT assay", "format": "functional, cell-based", "settings": "Mus musculus"}, "NCI-H460": {"test_system": "NCI-H460", "assay": "Antiproliferative activity against human NCI-H460 cells assessed as inhibition of cell growth by MTT assay", "format": "functional, cell-based"}, "CAKI-2": {"test_system": "CAKI-2", "assay": "Antiproliferative activity against human CAKI-2 cells assessed as inhibition of cell growth incubated for 24 hrs by SRB assay", "format": "functional, cell-based", "settings": "CAKI-2, 24 h"}, "[2]": {"assay": "Antiproliferative activity against human StMl1 1a cells assessed as inhibition of cell growth incubated for 24 hrs by SRB assay", "format": "functional, cell-based"}, "LS174T": {"test_system": "LS174T", "assay": "Antiproliferative activity against human LS174T cells assessed as inhibition of cell growth incubated for 24 hrs by SRB assay", "format": "functional, cell-based"}, "MCF7 [3]": {"test_system": "MCF7", "assay": "Antiproliferative activity against human MCF7 cells assessed as inhibition of cell growth incubated for 24 hrs by SRB assay", "format": "functional, cell-based", "settings": "MCF7, 24 h"}, "4T1": {"test_system": "4T1", "assay": "Antiproliferative activity against mouse 4T1 cells assessed as inhibition of cell growth incubated for 48 hrs by MTT assay", "format": "functional, cell-based", "settings": "4T1, 48 h"}, "MCF7 [4]": {"test_system": "MCF7", "assay": "Antiproliferative activity against human MCF7 cells assessed as inhibition of cell growth incubated for 48 hrs by MTT assay", "format": "functional, cell-based", "settings": "MCF7, 48 h"}, "[5]": {"assay": "Antiproliferative activity against human MDA-MB cells assessed as inhibition of cell growth", "format": "functional, cell-based"}, "HCT-8": {"test_system": "HCT-8", "assay": "Antiproliferative activity against human HCT-8 cells assessed as inhibition of cell growth", "format": "functional, cell-based"}, "A549 [6]": {"test_system": "A549", "assay": "Antiproliferative activity against human A549 cells assessed as inhibition of cell growth", "format": "functional, cell-based"}, "Huh-7": {"test_system": "Huh-7", "assay": "Antiproliferative activity against human Huh-7 cells assessed as inhibition of cell growth incubated for 72 hrs by MTT assay", "format": "functional, cell-based", "settings": "Huh-7, 72 h"}, "MDA-MB-231": {"test_system": "MDA-MB-231", "assay": "Antiproliferative activity against human MDA-MB-231 cells assessed as inhibition of cell growth incubated for 72 hrs by MTT assay", "format": "functional, cell-based", "settings": "MDA-MB-231, 72 h"}, "[7]": {"assay": "Antiproliferative activity against human AV3 cells assessed as inhibition of cell growth incubated for 72 hrs by MTT assay", "format": "functional, cell-based", "settings": "AV3, 72 h"}, "HL-60": {"test_system": "HL-60", "assay": "Antiproliferative activity against human HL-60 cells assessed as inhibition of cell growth incubated for 48 hrs by MTT assay", "format": "functional, cell-based", "settings": "HL-60, 48 h"}, "A549 [8]": {"test_system": "A549", "assay": "Antiproliferative activity against human A549 cells assessed as inhibition of cell growth incubated for 48 hrs by MTT assay", "format": "functional, cell-based", "settings": "A549, 48 h"}, "SK-BR-3": {"test_system": "SK-BR-3", "assay": "Antiproliferative activity against human SK-BR-3 cells assessed as inhibition of cell growth incubated for 48 hrs by MTT assay", "format": "functional, cell-based", "settings": "SK-BR-3, 48 h"}, "SMMC-7721": {"test_system": "SMMC-7721", "assay": "Antiproliferative activity against human SMMC-7721 cells assessed as inhibition of cell growth incubated for 48 hrs by MTT assay", "format": "functional, cell-based", "settings": "SMMC-7721, 48 h"}, "PANC-1": {"test_system": "PANC-1", "assay": "Antiproliferative activity against human PANC-1 cells assessed as inhibition of cell growth incubated for 48 hrs by MTT assay", "format": "functional, cell-based", "settings": "PANC-1, 48 h"}, "BT-549": {"test_system": "BT-549", "assay": "Antiproliferative activity against human BT-549 cells assessed as inhibition of cell growth incubated for 48 hrs by MTT assay", "format": "functional, cell-based", "settings": "BT-549, 48 h"}, "PC-3": {"test_system": "PC-3", "assay": "Antiproliferative activity against human PC-3 cells assessed as inhibition of cell growth incubated for 48 hrs by MTT assay", "format": "functional, cell-based", "settings": "PC-3, 48 h"}, "K562": {"test_system": "K562", "assay": "Antiproliferative activity against human K562 cells assessed as inhibition of cell growth incubated for 48 hrs by MTT assay", "format": "functional, cell-based", "settings": "K562, 48 h"}, "AGS": {"test_system": "AGS", "assay": "Antiproliferative activity against human AGS cells assessed as inhibition of cell growth incubated for 24 hrs by MTT assay", "format": "functional, cell-based"}, "L1210 [9]": {"test_system": "L1210", "assay": "Antiproliferative activity against mouse L1210 cells assessed as inhibition of cell growth incubated for 24 hrs by MTT assay", "format": "functional, cell-based", "settings": "L1210, 24 h"}, "[10]": {"assay": "Antiproliferative activity against human BC cells assessed as inhibition of cell growth incubated for 24 hrs by MTT assay", "format": "functional, cell-based"}, "HepG2": {"test_system": "HepG2", "assay": "Antiproliferative activity against human HepG2 cells assessed as inhibition of cell growth incubated for 24 hrs by MTT assay", "format": "functional, cell-based", "settings": "HepG2, 24 h"}, "[11]": {"assay": "Antiproliferative activity against vincristine-resistant human KB cells assessed as inhibition of cell growth incubated for 72 hrs by MTT assay", "format": "functional, cell-based"}, "L1210 [12]": {"test_system": "L1210", "assay": "Antiproliferative activity against mouse L1210 cells assessed as inhibition of cell growth", "format": "functional", "settings": "L1210, read-out: ED50"}, "HT-29 [13]": {"test_system": "HT-29", "assay": "Antiproliferative activity against human HT-29 cells assessed as inhibition of cell growth", "format": "functional, cell-based"}}}
{"smiles": "C/C=C1/C[N+]2(C)CC[C@@]34C[C@H]5[C@@H]6C[C@H]7c8c(c9ccccc9n8C)C[C@@H]([C@@H]6CO[C@@]5(C)O[C@@]35[C@@H]2C[C@@H]1[C@@H](C(=O)OC)N5c1ccccc14)N7C", "note": "(stereo partly drawn)", "values": [{"measurement": "EC50", "setting": "HT-29 [1]; HT-29, time 48 hrs, read-out: ED50 (the source's name)", "result": 6500, "unit": "nM"}]}
{"smiles": "COC(=O)c1[nH]cc2c1[C@]1(CN(C)c3ccc(Cl)cc31)c1[nH]c3ccc(Cl)cc3c1-2", "values": [{"measurement": "IC50", "setting": "CCRF-CEM", "result": 4, "unit": "µg/mL"}, {"measurement": "IC50", "setting": "B16", "result": 5, "unit": "µg/mL"}, {"measurement": "IC50", "setting": "NCI-H460", "result": 12, "unit": "µg/mL"}]}
{"smiles": "C/C=C1/CN2CC[C@@]34C[C@H]5[C@@H]6C[C@H]7c8c(c9ccccc9n8C)C[C@@H]([C@@H]6CO[C@@]5(C)O[C@@]35[C@@H]2C[C@@H]1[C@@H](C(=O)OC)N5c1ccccc14)N7C", "values": [{"measurement": "IC50", "setting": "CAKI-2", "result": 2000, "unit": "nM"}, {"measurement": "IC50", "setting": "[2]", "result": 2000, "unit": "nM"}, {"measurement": "IC50", "setting": "LS174T", "result": 2000, "unit": "nM"}, {"measurement": "IC50", "setting": "MCF7 [3]", "result": 2000, "unit": "nM"}, {"measurement": "IC50", "setting": "HT-29 [1]; HT-29, 48 h", "result": 8000, "unit": "nM"}]}
{"smiles": "C/C=C1/CN(C)[C@H]2Cc3c([nH]c4ccccc34)[C@H](c3cc4[nH]c5c(c4cc3OC)CCN3C[C@@H]4C[C@H](CC)[C@H]3[C@@]5(C(=O)OC)C4)C[C@@H]1C2C(=O)OC", "note": "(stereo partly drawn)", "values": [{"measurement": "IC50", "setting": "4T1", "result": 1420, "unit": "nM"}, {"measurement": "IC50", "setting": "MCF7 [4]", "result": 990, "unit": "nM"}]}
{"smiles": "CN1C[C@H](c2c[nH]c3c(Br)c(Br)cc(O)c23)NC[C@H]1c1c[nH]c2cc(Br)ccc12", "values": [{"measurement": "IC50", "setting": "[5]", "result": 1, "unit": "µg/mL"}, {"measurement": "IC50", "setting": "HCT-8", "result": 1, "unit": "µg/mL"}, {"measurement": "IC50", "setting": "A549 [6]", "result": 1, "unit": "µg/mL"}]}
{"smiles": "C/C=C1/CCN2CC[C@@]34c5cc6c(cc5N(C)[C@]35OC[C@]4(C(=O)OC)[C@@H]1[C@H]25)O[C@@]12[C@@H]3C[C@H]4/C(=C\\C)CN3CC[C@]1(C6)c1ccccc1N2[C@]4(CO)C(=O)OC", "values": [{"measurement": "IC50", "setting": "Huh-7", "result": 9800, "unit": "nM"}, {"measurement": "IC50", "setting": "MDA-MB-231", "result": 9800, "unit": "nM"}, {"measurement": "IC50", "setting": "[7]", "result": 9800, "unit": "nM"}]}
{"smiles": "C/C=C1/CCN2CC[C@@]34c5cc6c(cc5N(C)[C@]35OC[C@]4(C(=O)OC)[C@@H]1[C@H]25)O[C@@]12[C@@H]3C[C@H]4/C(=C\\C)CN3CC[C@]1(C6)c1ccccc1N2[C@@H]4C(=O)OC", "values": [{"measurement": "IC50", "setting": "Huh-7", "result": 9800, "unit": "nM"}, {"measurement": "IC50", "setting": "MDA-MB-231", "result": 9800, "unit": "nM"}, {"measurement": "IC50", "setting": "[7]", "result": 9800, "unit": "nM"}]}
{"smiles": "CCC12CCCN3CC[C@@]4(OC)c5cc([C@@H]6C[C@@]7(CC)CCCN8CCc9c(n6c6ccccc96)[C@H]87)c(O)cc5N(CCC1)C324", "note": "(stereo partly drawn)", "values": [{"measurement": "IC50", "setting": "HL-60", "result": 500, "unit": "nM"}, {"measurement": "IC50", "setting": "A549 [8]", "result": 500, "unit": "nM"}, {"measurement": "IC50", "setting": "MCF7 [4]", "result": 500, "unit": "nM"}, {"measurement": "IC50", "setting": "SK-BR-3", "result": 500, "unit": "nM"}, {"measurement": "IC50", "setting": "SMMC-7721", "result": 500, "unit": "nM"}, {"measurement": "IC50", "setting": "PANC-1", "result": 500, "unit": "nM"}]}
{"smiles": "CC[C@]12C=C[C@H](C3=CC4CC(C(=O)OC)=C5Nc6cc(OC)ccc6[C@@]56CCN(C3)[C@@H]46)N3CC[C@]4(C(=C(C(=O)OC)C1)Nc1cc(OC)ccc14)[C@@H]32", "note": "(stereo partly drawn)", "values": [{"measurement": "IC50", "setting": "A549 [8]", "result": 11400, "unit": "nM"}, {"measurement": "IC50", "setting": "BT-549", "result": 890, "unit": "nM"}, {"measurement": "IC50", "setting": "PC-3", "result": 3440, "unit": "nM"}, {"measurement": "IC50", "setting": "K562", "result": 10700, "unit": "nM"}]}
{"smiles": "O=C1N[C@@H](c2c[nH]c3cc(Br)ccc23)CN=C1c1c[nH]c2cc(Br)ccc12", "note": "[HAMACANTHIN A]", "values": [{"measurement": "IC50", "setting": "AGS", "result": 1.1, "unit": "µg/mL"}, {"measurement": "IC50", "setting": "L1210 [9]", "result": 1.1, "unit": "µg/mL"}, {"measurement": "IC50", "setting": "[10]", "result": 10.7, "unit": "µg/mL"}, {"measurement": "IC50", "setting": "HepG2", "result": 12.5, "unit": "µg/mL"}]}
{"smiles": "O=C1NC(=O)c2c1c1c3ccccc3[nH]c1c1[nH]c3cc(O)ccc3c21", "values": [{"measurement": "IC50", "setting": "[11]", "result": 2.28, "unit": "µg/mL"}]}
{"smiles": "CN1C[C@H](c2c[nH]c3cc(Br)ccc23)NC[C@H]1c1c[nH]c2cc(Br)ccc12", "values": [{"measurement": "EC50", "setting": "L1210 [12]", "result": 10, "unit": "µg/mL"}]}
{"smiles": "COC(=O)C1=CN2CCc3c([nH]c4ccccc34)[C@@H]2C[C@@H]1C1=CO[C@@H]([C@H]2[C@@H]3CCN4CC[C@@]5(C(=C3C(=O)OC)Nc3ccccc35)[C@@H]24)C[C@@H]1C", "values": [{"measurement": "IC50", "setting": "HT-29 [13]", "result": 2.05, "unit": "nM"}, {"measurement": "IC50", "setting": "A549 [6]", "result": 3.09, "unit": "nM"}]}
